Reference: patent publication US8231721B2, “Antifungal liquid formulations” (LANXESS Deutschland GmbH, priority 2008, dated 2012)

Test: Solubility of IPBC in Rhodiasolv DIB and PEG 300 (HPLC of supernatant)
Format: physicochemical
Settings: room temperature, after-stirred 12 h, supernatant by HPLC
Experimental: Solubility of IPBC in Rhodiasolv DIB and PEG 300
The solvent was introduced as initial charge at room temperature, and IPBC was added until a sediment persisted. It was after-stirred for a further 12 h, the solid was centrifuged off and the remaining supernatant was analyzed by means of HPLC.

CCCCNC(=O)OCC#CI [IPBC, 3-iodopropargyl butylcarbamate]
solubility of IPBC in Rhodiasolv DIB: 36.1 % by weight
solubility of IPBC in polyethylene glycol 300: 44.9 % by weight
